Test results from patent US10815226B2, “Heteroaryl compounds as inhibitors of necrosis, composition and application thereof” (ACCRO BIOSCIENCE INC., priority 2016, dated 2020).

What was measured:
[1] = test system: HT29 cells; test: HT29 cell necroptosis assay (TNF-α/Smac mimetic/z-VAD induced necrosis, viability); type: cell-based, human; conditions: 10 μM test compound pretreated one hour, TNF-α (40 ng/mL), Smacmimetic (100 nM), z-VAD (20 μM) for 48 hours
Method: Biological in Vitro HT29 Cell Assay.
(§1) The efficacies of RIP1 inhibitors were tested in vitro using human colon cancer TH29 cells in a necroptosis assay. For the assay, Cells were added to 96-well plates and then 10 μM of the test compound was pretreated for one hour. Then the cells were treated with TNF-α (40 ng/mL), Smacmimetic (100 nM) and z-VAD (20 μM) for 48 hours, and the viability was quantified. DMSO pretreatment group was negative control, Nec-1 pretreatment group was positive control.

[2] = test system: L929 cells; test: L929 cell necroptosis assay (same protocol as the HT29 cell assay); type: cell-based, mouse; conditions: for L929 Inhibition (10 μM): 10 μM test compound, protocol as HT29 assay; for IC50: Mus musculus
Method: as §1, with “For the assay, Cells were added to 96-well plates and then 10 μM of the test compound was pretreated for one hour.” left out
Biological In Vitro L929 Cell Assay.
Mouse L-cells NCTC 929 (L929) were acquired from ATCC (cat. no. ATCC CCL-1) and banked in liquid nitrogen. The assay protocol was the same as described for the HT29 cell assay.

[3] = test system: HT29 cells; test: HT29 cell necroptosis assay (TNF-α/Smac mimetic/z-VAD induced necrosis, viability); type: cell-based, human; conditions: Homo sapiens, HT-29, HT29 cells, TNF-α/Smacmimetic/z-VAD induced necrosis

Row | Compound | HT29 Inhibition (10 μM) [1] [%] | L929 Inhibition (10 μM) [2] [%] | IC50 ([3]; values given in μM) [µM] | IC50 ([3]; values in nM) [µM] | IC50 ([2]; values in nM) [nM] | IC50 ([2]; values given in μM) [nM]
1 | CC(=O)Nc1nc2ccc(-c3cncc(NC(=O)Cc4ccccc4)c3)cc2s1 [Compound A12] | 11 | 80 | 2.56 |  |  | 
2 | CC(=O)Nc1nc2ccc(-c3cncc(NC(=O)Cc4ccccc4Cl)c3)cc2s1 [Compound A13] | 80 | 94 | 5.24 |  |  | 
3 | CC(=O)Nc1nc2ccc(-c3cncc(NC(=O)Cc4cccc(Cl)c4)c3)cc2s1 [Compound A14] | 71 | 95 |  |  |  | 
4 | CC(=O)Nc1nc2ccc(-c3cncc(NC(=O)Cc4ccc(Cl)cc4)c3)cc2s1 [Compound A15] | 95 | 87 |  |  |  | 
5 | CC(=O)Nc1nc2ccc(-c3cncc(NC(=O)Cc4ccccc4F)c3)cc2s1 [Compound A16] | 36 | 86 |  |  |  | 
6 | CC(=O)Nc1nc2ccc(-c3cncc(NC(=O)Cc4ccc(F)cc4)c3)cc2s1 [Compound A18] | 24 | 51 |  |  |  | 
7 | CC(=O)Nc1nc2ccc(-c3cc(NC(=O)Cc4ccccc4)ccn3)cc2s1 [Compound A19] | 1 | 22 |  |  |  | 
8 | CC(=O)Nc1nc2ccc(-c3cccc(NC(=O)Cc4ccccc4)c3)cc2s1 [Compound A20] | 11 | 69 |  |  |  | 
9 | CC(=O)Nc1nc2ccc(-c3cnc(Cl)c(NC(=O)Cc4ccccc4)c3)cc2s1 [Compound A21] | 28 | 42 | 16.5 |  |  | 
10 | COc1ncc(-c2ccc3nc(NC(C)=O)sc3c2)cc1NC(=O)Cc1ccccc1 [Compound A22] | 66 | 42 |  |  |  | 
11 | CC(=O)Nc1nc2ccc(-c3cnc(C)c(NC(=O)Cc4ccccc4)c3)cc2s1 [Compound A23] | 104 | 42 |  | 0.67 |  | 
12 | CC(=O)Nc1nc2ccc(-c3cnc(Cl)c(NC(=O)Cc4ccccc4Cl)c3)cc2s1 [Compound A24] | 113 | 42 |  | 0.527 |  | 
13 | CC(=O)Nc1nc2ccc(-c3cnc(Cl)c(NC(=O)Cc4ccc(OCCOCCNC(=O)OC(C)(C)C)cc4)c3)cc2s1 [Compound A26] | 30 | 42 |  |  |  | 
14 | CC(=O)Nc1nc2ccc(-c3cnc(Cl)c(NC(=O)Cc4ccc(OCCOCCNC(=O)CCCCCNC(=O)CCCC[C@@H]5SC[C@@H]6NC(=O)N[C@@H]65)cc4)c3)cc2s1 [Compound A27] | 48 | 42 |  |  |  | 
15 | CC(=O)Nc1nc2ccc(-c3cccc(NC(=O)Cc4ccccc4Cl)c3)cc2s1 [Compound A28] | 34 | 45 |  |  |  | 
16 | CC(=O)Nc1nc2ccc(-c3cc(NC(=O)Cc4ccccc4Cl)ccn3)cc2s1 [Compound A29] | 81 | 45 |  |  |  | 
17 | CC(=O)Nc1nc2ccc(-c3ccnc(NC(=O)Cc4ccccc4Cl)c3)cc2s1 [Compound A30] | 38 | 45 |  |  |  | 
18 | CC(=O)Nc1nc2ccc(-c3cnc(C)c(NC(=O)OC4CCCCC4)c3)cc2s1 [Compound A36, Cyclohexyl (5-(2-acetamidobenzo[d]thiazol-6-yl)-2-methylpyridin-3-yl)carbamate] |  |  |  | 0.03 | 5 | 
19 | CC(=O)Nc1nc2ccc(-c3cnc(C)c(NC(=O)CC(C)(C)C)c3)cc2s1 [Compound A45] |  |  |  | 0.43 |  | 1010
20 | CC(=O)Nc1cn2cc(-c3cnc(C)c(NC(=O)CC4CCCCC4)c3)ccc2n1 [Compound A46] |  |  |  | 0.9 |  | 2480
21 | CCc1ncc(-c2ccc3nc(NC(C)=O)sc3c2)cc1NC(=O)OC1CCCCC1 [Compound A54] |  |  |  | 0.075 | 200 | 
22 | CC(=O)Nc1nc2ccc(-c3ccc(C)c(NC(=O)OC4CCCCC4)n3)cc2s1 [Compound A56, Cyclohexyl (6-(2-acetamidobenzo[d]thiazol-6-yl)-3-methylpyridin-2-yl) Carbamate] |  |  |  | 0.7 | 500 | 
23 | CC(=O)Nc1nc2ccc(-c3cnc(C)c(NC(=O)OC4CCCCC4)c3)nc2s1 [Compound A57] |  |  |  | 0.092 | 30 | 
24 | CC(=O)Nc1nc2cc(-c3cnc(C)c(NC(=O)OC4CCCCC4)c3)ccn2n1 [Compound A58] |  |  | 1 |  |  | 1000
25 | Cc1ncc(-c2ccc3nc(NC(=O)C4CC4)sc3c2)cc1NC(=O)OC1CCCCC1 [Compound A61] |  |  |  | 0.0012 | 3 | 
